This is an account of results in patent US10407409B2, “6-(5-hydroxy-1H-pyrazol-1-yl)nicotinamide inhibitors of PHD” (Takeda Pharmaceutical Company Limited, priority 2013, dated 2019).

Experiment [1] concerns the target PHD2 enzyme (residues 181-417) (Homo sapiens (Human), UniProt Q9GZT9). As to the kind of experiment: Inhibition of PHD enzyme (LC/MS peptide hydroxylation assay). In kind it is biochemical. Conditions: PHD2 (residues 181-417) 5 nM, 60 min pre-incubation; -log(IC50), IC50 molar. The protocol:
Example A Inhibition of PHD Enzyme
The IC50 values for the PHD2 enzyme (residues 181-417) were determined by mixing increasing amounts of inhibitor with a fixed amount of enzyme (5 nM, final concentration) and Biotin labeled peptide (Biotin-Asp-Leu-Glu-Met-Leu-Ala-Pro-Tyr-Ile-Pro-Met-Asp-Asp-Asp-Phe-Gln-Leu, 1 uM final concentration) and 2-Oxyglutarate (2 uM final concentration) in 50 mM HEPES, 50 mM KCl, 0.5 mM TCEP, 2 uM FeCl2, 0.1 mg/ml BSA, at pH 7.3. The reaction was conducted by pre-incubating the enzyme in the presence of inhibitor for 60 min at room temperature. The activity of the free enzyme was measured by adding the peptide, the 2-Oxoglutarate (see above for final concentrations), and Ascorbic Acid (1 mM final concentration). The enzymatic activity was quenched after 60 min by adding an excess of a tight binding inhibitor to the assay mixture. The amount of product released was measured by using a LC/MS system (Agilent HPLC with Applied Biosystems API3000 Mass Spectrometer). Data were analyzed using the classical isotherm equation for the determination of IC50 values and are pIC50, i.e., −log(IC50), where IC50 is molar concentration and are reported as pIC50, i.e., −log(IC50), where IC50 is molar concentration.

For experiment [2], the system named is HIF1a protein in H9c2 rat cardiomyocytes. As to the kind of experiment: Cell-based HIF-alpha stabilization assay (inhibition of PHD in cells). Conditions: 24 hrs compound incubation, HIF1a protein by ELISA; for EC50: Rattus norvegicus, H9c2, 24 h, read-out: Inhibition of PHD in cells (pEC50) (converted). The protocol:
Example B Inhibition of PHD in Cells
PHD Inhibition is Determined Using (Secondary Assay)
Cell-Based HIF-Alpha Stabilization Assay:
H9c2 rat cardiomyocytes (ATCC) were seeded in 96-well tissue culture microplates and cultured for 24 hours prior to addition of compounds (11 point range of serial dilutions) or dimethylsulfoxide vehicle. After 24 hrs of compound incubation, whole cell extracts were prepared by lysing cells in cell extraction buffer containing protease and phosphatase inhibitors (Meso-Scale Discovery). HIF1a protein content was assessed by ELISA (Meso-Scale Discovery) and expressed as a % relative to the maximum response obtained from the positive control, desferrioxamine (Sigma-Aldrich). Compound EC50s were obtained by curve-fitting using XLfit4 MicroSoft Excel curve-fitting software. Compound EC50pos were obtained using XLfit4 to calculate the compound concentration that results in 50% of the desferrioxamine maximum response.

Chain of PHD2 enzyme (residues 181-417) (Q9GZT9 181-417): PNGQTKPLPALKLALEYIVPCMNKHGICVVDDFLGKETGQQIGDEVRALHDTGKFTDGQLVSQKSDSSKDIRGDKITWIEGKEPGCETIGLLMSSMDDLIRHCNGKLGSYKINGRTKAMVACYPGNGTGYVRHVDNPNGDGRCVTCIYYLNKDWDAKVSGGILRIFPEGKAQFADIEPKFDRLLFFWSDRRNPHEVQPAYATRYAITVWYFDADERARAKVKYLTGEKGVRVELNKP

Take `CN(C)CCNC(=O)c1ccc(-n2ncc(-c3ccc(C#N)cc3)c2O)nc1` [Example 268, 6-(4-(4-cyanophenyl)-5-hydroxy-1H-pyrazol-1-yl)-N-(2-(dimethylamino)ethyl)nicotinamide]: the “PHD Inhibition (pIC50)” value in experiment [1] is reported as 6.32. Also, in experiment [2], the EC50 was 1.95 µM. Consider `Cc1c(-c2cnn(-c3ccc(C(=O)N4CC[C@@H](N(C)C)C4)cn3)c2O)ccc(C#N)c1F` [Example 317, (R)-4-(1-(5-(3-(dimethylamino)pyrrolidine-1-carbonyl)pyridin-2-yl)-5-hydroxy-1H-pyrazol-4-yl)-2-fluoro-3-methylbenzonitrile], for which the “PHD Inhibition (pIC50)” value in experiment [1] came to 8.31. The EC50 in experiment [2] was 0.676 µM. For `Cc1c(C#N)ccc(-c2cnn(-c3ccc(C(=O)N4CCN(C5CC5)CC4)cn3)c2O)c1C` [Example 310, 4-(1-(5-(4-cyclopropylpiperazine-1-carbonyl)pyridin-2-yl)-5-hydroxy-1H-pyrazol-4-yl)-2,3-dimethylbenzonitrile], in experiment [1], the “PHD Inhibition (pIC50)” value is 8.13. Also, the EC50 in experiment [2] was 3.16 µM. The matching figures for `COc1cc(-c2cnn(-c3ccc(C(=O)NCC4CCOCC4)cn3)c2O)c(F)cn1` [Example 254, 6-(4-(5-fluoro-2-methoxypyridin-4-yl)-5-hydroxy-1H-pyrazol-1-yl)-N-((tetrahydro-2H-pyran-4-yl)methyl)nicotinamide]: 8 and 2.75 µM. The corresponding values for `COCC1(NC(=O)c2ccc(-n3ncc(-c4ccnc(OC)c4)c3O)nc2)CC1` [Example 205, 6-(5-hydroxy-4-(2-methoxypyridin-4-yl)-1H-pyrazol-1-yl)-N-(1-(methoxymethyl)cyclopropyl)nicotinamide] are 6.89 and 0.631 µM.

As for `COCCCNC(=O)c1ccc(-n2ncc(-c3ccc(C#N)cc3COC)c2O)nc1` [Example 410, 6-(4-(4-cyano-2-(methoxymethyl)phenyl)-5-hydroxy-1H-pyrazol-1-yl)-N-(3-methoxypropyl)nicotinamide], in experiment [1], the “PHD Inhibition (pIC50)” value came out at 8.07. For the same compound, the EC50 in experiment [2] is 0.513 µM. The corresponding values for `N#Cc1ccc(-c2cnn(-c3ccc(C(=O)N[C@H]4CC[C@H](O)CC4)cn3)c2O)cc1` [Example 165, 6-(4-(4-cyanophenyl)-5-hydroxy-1H-pyrazol-1-yl)-N-((1r,4r)-4-hydroxycyclohexyl)nicotinamide] are 7.68 and 0.251 µM. The corresponding values for `Cc1cc(C#N)ccc1-c1cnn(-c2ccc(C(=O)NCCCCO)cn2)c1O` [Example 130, 6-(4-(4-cyano-2-methylphenyl)-5-hydroxy-1H-pyrazol-1-yl)-N-(4-hydroxybutyl)nicotinamide] are 7.27 and 0.417 µM. For the compound `Cc1cc(C#N)ccc1-c1cnn(-c2ccc(C(=O)N3CCCC(N4CCCCC4)C3)cn2)c1O` (stereo not shown) [Example 314, 4-(1-(5-([1,3′-bipiperidine]-1′-carbonyl)pyridin-2-yl)-5-hydroxy-1H-pyrazol-4-yl)-3-methylbenzonitrile], the “PHD Inhibition (pIC50)” value in experiment [1] is on record as 7.90. For the same compound, the EC50 in experiment [2] was 0.55 µM. Take `Cc1cc(C#N)ccc1-c1cnn(-c2ccc(C(=O)N3CCC[C@@H](N4CCCC4)C3)cn2)c1O` [Example 387, (R)-4-(5-hydroxy-1-(5-(3-(pyrrolidin-1l-yl)piperidine-1-carbonyl)pyridin-2-yl)-1H-pyrazol-4-yl)-3-methylbenzonitrile]: in experiment [1], the “PHD Inhibition (pIC50)” value came to 7.91. Besides, the EC50 in experiment [2] was 0.871 µM. On to `COCCNC(=O)c1ccc(-n2ncc(-c3ccc(C#N)cc3)c2O)nc1` [Example 152, 6-(4-(4-cyanophenyl)-5-hydroxy-1H-pyrazol-1-yl)-N-(2-methoxyethyl)nicotinamide], for which the “PHD Inhibition (pIC50)” value in experiment [1] amounted to 7.6. The EC50 in experiment [2] is 2.04 µM.

`COc1cc(-c2cnn(-c3ccc(C(=O)NC4CCC4)cn3)c2O)ccn1` [Example 13, N-cyclobutyl-6-(5-hydroxy-4-(2-methoxypyridin-4-yl)-1H-pyrazol-1-yl)nicotinamide]: the “PHD Inhibition (pIC50)” value in experiment [1] is 7.15. Further, in experiment [2], the EC50 is 0.417 µM.

Regarding `Cc1cc(C#N)ccc1-c1cnn(-c2ccc(C(=O)NC3(C)CC3)cn2)c1O` [Example 61, 6-(4-(4-cyano-2-methylphenyl)-5-hydroxy-1H-pyrazol-1-yl)-N-(1-methylcyclopropyl)nicotinamide], the “PHD Inhibition (pIC50)” value in experiment [1] is on record as 7.19. Moreover, the EC50 in experiment [2] is 0.0794 µM. The matching figures for `COCCC(C)NC(=O)c1ccc(-n2ncc(-c3ccnc(OC)c3)c2O)nc1` (stereo not shown) [Example 114, 6-(5-hydroxy-4-(2-methoxypyridin-4-yl)-1H-pyrazol-1-yl)-N-(4-methoxybutan-2-yl)nicotinamide]: 6.55 and 0.257 µM. The corresponding values for `CCN1CCN(C(=O)c2ccc(-n3ncc(-c4ccc(C#N)c(F)c4C)c3O)nc2)C[C@@H]1C` [Example 328, (S)-4-(1-(5-(4-ethyl-3-methylpiperazine-1-carbonyl)pyridin-2-yl)-5-hydroxy-1H-pyrazol-4-yl)-2-fluoro-3-methylbenzonitrile] are 8.39 and 0.309 µM.

For `CCCN1CCN(C(=O)c2ccc(-n3ncc(-c4ccc(C#N)cc4C)c3O)nc2)C[C@@H]1C` [Example 374, (S)-4-(5-hydroxy-1-(5-(3-methyl-4-propylpiperazine-1-carbonyl)pyridin-2-yl)-1H-pyrazol-4-yl)-3-methylbenzonitrile], the EC50 in experiment [2] was 0.1 µM. As for `COc1cc(-c2cnn(-c3ccc(C(=O)NCCCn4ccnc4)cn3)c2O)ccn1` [Example 21, N-(3-(1H-imidazol-1-yl)propyl)-6-(5-hydroxy-4-(2-methoxypyridin-4-yl)-1H-pyrazol-1-yl)nicotinamide], in experiment [2], the “Inhibition of PHD in cells (pEC50)” value was 6.46. With `COCC1(NC(=O)c2ccc(-n3ncc(-c4ccc(C#N)cc4C)c3O)nc2)CC1` [Example 118A, 6-(4-(4-cyano-2-methylphenyl)-5-hydroxy-1H-pyrazol-1-yl)-N-(1-(methoxymethyl)cyclopropyl)nicotinamide], the EC50 in experiment [2] was 0.0794 µM. Still for that read-out and setting: in the case of `COc1cc(-c2cnn(-c3ccc(C(=O)NCCCN4CCCC4)cn3)c2O)ccn1` [Example 19, 6-(5-hydroxy-4-(2-methoxypyridin-4-yl)-1H-pyrazol-1-yl)-N-(3-(pyrrolidin-1-yl)propyl)nicotinamide] it was 1.38 µM; in that of `COc1ccc2c(c1)C(NC(=O)c1ccc(-n3ncc(-c4ccc(C#N)cc4)c3O)nc1)CC2` (stereo not shown) [Example 83, 6-(4-(4-cyanophenyl)-5-hydroxy-1H-pyrazol-1-yl)-N-(6-methoxy-2,3-dihydro-1H-inden-1-yl)nicotinamide], 1.78 µM; in that of `COc1cc(-c2cnn(-c3ccc(C(=O)NCCCN4CCCCC4C)cn3)c2O)ccn1` (stereo not shown) [Example 29, 6-(5-hydroxy-4-(2-methoxypyridin-4-yl)-1H-pyrazol-1-yl)-N-(3-(2-methylpiperidin-1-yl)propyl)nicotinamide], 0.871 µM.

With `CN1CCC(NC(=O)c2ccc(-n3ncc(-c4ccc(C#N)cc4)c3O)nc2)CC1=O` (stereo not shown) [Example 82, 6-(4-(4-cyanophenyl)-5-hydroxy-1H-pyrazol-1-yl)-N-(1-methyl-2-oxopiperidin-4-yl)nicotinamide], the EC50 in experiment [2] is 4.79 µM.
